Experimental data taken from US6525059B1, “Substituted pyrazoles as p38 kinase inhibitors” (G. D. Searle & Company, priority 1998, dated 2003).
Values joined by “and” are separate entries in the source; they are usually repeats but may differ in a detail not shown here. Identical values can stand only once. Counter-ions that a name gives are not always drawn. Like-named read-outs stand apart in the source and are kept apart here.

Experiments:
[1] = molecular target: T1, human GST-p38 kinase alpha (Homo sapiens, UniProt Q16539); experiment: p38 kinase in vitro assay, second format, phosphorylation of EGFRP with 33P-ATP; assay type: biochemical; conditions: read-out: p38α Kinase Assay IC50
T1 construct: The coding region of the human p38a cDNA was obtained by PCR-amplification from RNA isolated from the human monocyte cell line THP.1; made in house; host or cells: E. coli DH10B
T1 sequence (Q16539 whole entry): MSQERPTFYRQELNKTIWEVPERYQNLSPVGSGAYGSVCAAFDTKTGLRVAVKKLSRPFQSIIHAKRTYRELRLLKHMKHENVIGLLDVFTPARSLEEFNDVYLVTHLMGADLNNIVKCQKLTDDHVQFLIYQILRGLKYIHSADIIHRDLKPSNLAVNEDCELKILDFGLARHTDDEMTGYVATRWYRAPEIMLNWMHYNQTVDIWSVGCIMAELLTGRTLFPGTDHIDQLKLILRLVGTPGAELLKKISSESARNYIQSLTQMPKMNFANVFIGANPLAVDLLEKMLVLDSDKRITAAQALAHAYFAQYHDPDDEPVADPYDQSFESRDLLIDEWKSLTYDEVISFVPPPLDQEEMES
Summary of the method: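 Activated human GST-p38α (pre-activated with GST-MKK6, 1 h, 30 °C) phosphorylates EGFR 21-mer peptide (200 μM) with 50 μM ATP plus γ-33P-ATP, pH 7.5, 60 min at room temperature. Unreacted ATP removed by AG 1×8 resin; supernatant scintillation-counted.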

human TNF = experiment: TNF inhibition: human whole blood assay; assay type: cell-based; conditions: Homo sapiens, LPS, read-out: TNF Inhibition-Human Whole Blood Assay
TNF-α = experiment: Rat assay: LPS-challenged rats, serum TNF-α by ELISA; assay type: in vivo; conditions: Rattus norvegicus, po; for inhibition in vivo at 1 mg/kg / inhibition in vivo at 5 mg/kg: read-out: Rat LPS Assay % Inhibition

Structure (SMILES)	melting point	further results
C#CCn1nc(N2CCNCC2)c(-c2ccncc2)c1-c1ccc(Cl)cc1 (as salt: hydrochloride) (hydrate or solvate) [Example A-318, 1-[5-(4-chlorophenyl)-4-(4-pyridinyl)-1-(2-propynyl)-1H-pyrazol-3-yl]piperazine, trihydrochloride monohydrate]	231 to 233 °C (dec.)	–
Fc1ccc(-c2[nH]nc(N3CCNCC3)c2-c2ccncc2)cc1 (as salt: hydrochloride) [Example A-172, 1-[5-(4-fluorophenyl)-4-(4-pyridinyl)-1H-pyrazol-3-yl]piperazine trihydrochloride]	204 to 206 °C	–
CN1CCN(c2n[nH]c(-c3ccc(F)cc3)c2-c2ccncc2)CC1.O.O (hydrate or solvate)	238 to 240 °C	–
CN1CCC(N(C)c2[nH]nc(-c3ccc(Cl)cc3)c2-c2ccncc2)CC1 (hydrate or solvate)	260 to 261 °C	–
O.O.O=C(O)CCC(=O)N1CCN(c2n[nH]c(-c3ccc(Cl)cc3)c2-c2ccncc2)CC1 (hydrate or solvate) [A-321 (dihydrate), 4-[5-(4-chlorophenyl)-4-(4-pyridinyl)-1H-pyrazol-3-yl]-γ-oxo-1-piperazinebutanoic acid, dihydrate]	281 to 283 °C (dec.)	–
CN1CCN(c2[nH]nc(-c3ccc(F)cc3)c2-c2ccncc2)CC1 (hydrate or solvate) [Example A-317, 1-[5-(4-fluorophenyl)-4-(4-pyridinyl)-1H-pyrazol-3-yl]-4-methylpiperazine, dihydrate]	262 to 264 °C	–
COC(=O)N1CCN(c2[nH]nc(-c3ccc(Cl)cc3)c2-c2ccncc2)CC1 (hydrate or solvate) [Example A-319, methyl 4-[5-(4-chlorophenyl)-4-(4-pyridinyl)-1H-pyrazol-3-yl]-1-piperazinecarboxylate, monohydrate]	264 to 265 °C	–
CS(=O)(=O)N1CCN(c2[nH]nc(-c3ccc(Cl)cc3)c2-c2ccncc2)CC1 (hydrate or solvate) [Example A-320, 1-[5-(4-chlorophenyl)-4-(4-pyridinyl)-1H-pyrazol-3-yl]-4-(methylsulfonyl)piperazine, monohydrate]	245 to 248 °C	–
CC(C)(C)OC(=O)N1CCN(c2n[nH]c(-c3ccc(F)cc3)c2-c2ccncc2)CC1 [Example A-171, 1,1-dimethylethyl 4-[5-(4-fluorophenyl)-4-(4-pyridinyl)-1H-pyrazol-3-yl]-1-piperazinecarboxylate]	243 to 244 °C	–
Cc1n[nH]c(-c2c(F)cccc2F)c1-c1ccncc1 [Example A-184, 4-[3-(2,6-difluorophenyl)-5-methyl-1H-pyrazol-4-yl]pyridine]	236.67 °C	–
Fc1ccc(-c2[nH]nc(C(F)(F)F)c2-c2ccncc2)cc1 [Example A-190]	281.94 °C	–
Cn1nc(-c2ccc(F)cc2)c(-c2ccncc2)c1C1CC1 [Example A-191]	129 to 130 °C	–
OCCn1nc(-c2ccc(F)cc2)c(-c2ccncc2)c1C1CC1 [Example A-192, 5-cyclopropyl-3-(4-fluorophenyl)-4-(4-pyridinyl)-1H-pyrazole-1-ethanol]	155 to 157 °C	–
O=c1cc(-c2c(-c3ccncc3)c(-c3ccc(F)cc3)nn2CCO)cc[nH]1 [Example A-194, 4-[3-(4-fluorophenyl)-1-(2-hydroxyethyl)-4-(4-pyridinyl)-1H-pyrazol-5-yl]-2(1H)-pyridinone]	250 to 251 °C	–
CC(=O)n1ccc(-c2c(-c3ccncc3)c(-c3ccc(F)cc3)nn2CCO)cc1=O [Example A-195, 1-acetyl-4-[3-(4-fluorophenyl)-1-(2-hydroxyethyl)-4-(4-pyridinyl)-1H-pyrazol-5-yl]-2(1H)-pyridinone]	220 to 221 °C	–
O=C(O)C1CC1c1c(-c2ccncc2)c(-c2ccc(F)cc2)nn1CCO (stereo not drawn) [Example A-197, 2-[3-(4-fluorophenyl)-1-(2-hydroxyethyl)-4-(4-pyridinyl)-1H-pyrazol-5-yl]cyclopropanecarboxylic acid]	253 to 255 °C	–
OCCn1nc(-c2ccc(F)cc2)c(-c2ccncc2)c1-c1cnc[nH]1 [Example A-198, 3-(4-fluorophenyl)-5-(4-imidazolyl)-4-(4-pyridinyl)-1H-pyrazole-1-ethanol]	227 to 228 °C	–
CCOC(=O)N1CCN(c2[nH]nc(-c3ccccc3)c2-c2ccncc2)CC1 [Example A-371, ethyl 4-[5-phenyl-4-(4-pyridinyl)-1H-pyrazol-3-yl]-1-piperazinecarboxylate]	–	IC50 ([1]; Table 9, 10% DMSO): 7900 nM; IC50 (human TNF; Table 9, human whole blood): 25000 nM; inhibition in vivo at 20 mg/kg (TNF-α; Table 9, dose 20 mg/kg): 52%
CCN(CC)CCNc1cc(-c2c[nH]nc2-c2ccc(F)cc2)ccn1 [Example A-374, N,N-diethyl-N′-[4-[3-(4-fluorophenyl)-1H-pyrazol-4-yl]-2-pyridinyl]-1,2-ethanediamine]	–	IC50 ([1]; Table 9, 10% DMSO): 380 nM; IC50 (human TNF; Table 9, human whole blood): 310 nM; inhibition in vivo at 1 mg/kg (TNF-α; Table 9, dose 1 mg/kg): 3%; inhibition in vivo at 5 mg/kg (TNF-α; Table 9, dose 5 mg/kg): 0%; inhibition in vivo at 20 mg/kg (TNF-α; Table 9, dose 20 mg/kg): 88%
OCC(Nc1cc(-c2c[nH]nc2-c2ccc(F)cc2)ccn1)c1ccccc1 (stereo not drawn) [Example A-376, (βR)-β-[[4-[3-(4-fluorophenyl)-1H-pyrazol-4-yl]-2-pyridinyl]amino]benzene ethanol]	–	IC50 ([1]; Table 9, 10% DMSO): 32 nM; IC50 (human TNF; Table 9, human whole blood): 1000 nM; inhibition in vivo at 20 mg/kg (TNF-α; Table 9, dose 20 mg/kg): 24%
CCN(CC)CCCC(C)Nc1cc(-c2c[nH]nc2-c2ccc(F)cc2)ccn1 (stereo not drawn) [Example A-377, N1,N1-diethyl-N4-[4-[3-(4-fluorophenyl)-1H-pyrazol-4-yl]-2-pyridinyl]-1,4-pentanediamine]	–	IC50 ([1]; Table 9, 10% DMSO): 4 nM and 1.9 nM; IC50 (human TNF; Table 9, human whole blood): 670 nM; inhibition in vivo at 1 mg/kg (TNF-α; Table 9, dose 1 mg/kg): 32%; inhibition in vivo at 5 mg/kg (TNF-α; Table 9, dose 5 mg/kg): 67%; inhibition in vivo at 20 mg/kg (TNF-α; Table 9, dose 20 mg/kg): 84%
CCN(CC)C1CCN(c2n[nH]c(-c3ccc(F)cc3)c2-c2ccncc2)CC1 [Example A-388, 1-[5-(4-fluorophenyl)-4-(4-pyridinyl)-1H-pyrazol-3-yl]-N,N-diethyl-4-piperidinamine, trihydrochloride]	–	IC50 ([1]; Table 9, 10% DMSO): 210 nM; IC50 (human TNF; Table 9, human whole blood): 340 nM; inhibition in vivo at 5 mg/kg (TNF-α; Table 9, dose 5 mg/kg): 67%; inhibition in vivo at 20 mg/kg (TNF-α; Table 9, dose 20 mg/kg): 97%
Fc1ccc(-c2n[nH]c(N3CCSCC3)c2-c2ccncc2)cc1 [Example A-438]	–	IC50 ([1]; Table 10, 10% DMSO, @ 1.0 hour): 560 nM; IC50 (human TNF; Table 10, human whole blood): > 25000 nM; inhibition in vivo at 20 mg/kg (TNF-α; Table 10, dose 20.0 mg/kg): 49%
Clc1ccc(-c2n[nH]c(OC3CCNCC3)c2-c2ccncc2)cc1 [Example A-442]	–	IC50 ([1]; Table 10, 10% DMSO, @ 1.0 hour): 22 nM; IC50 (human TNF; Table 10, human whole blood): 160 nM; inhibition in vivo at 1 mg/kg (TNF-α; Table 10, dose 1.0 mg/kg): 51%; inhibition in vivo at 5 mg/kg (TNF-α; Table 10, dose 5.0 mg/kg): 56%; inhibition in vivo at 20 mg/kg (TNF-α; Table 10, dose 20.0 mg/kg): 92%

The next lines start with results.

melting point	Structure (SMILES)	further results
88.6 °C	Cc1nn(C)c(-c2ccc(Cl)cc2)c1-c1ccncc1 [Example A-32, 4-[5-(4-chlorophenyl)-1,3-dimethyl-1H-pyrazol-4-yl]pyridine]	–
260 to 261 °C	CCN(CC)c1n[nH]c(-c2ccc(Cl)cc2)c1-c1ccncc1 [Example A-163, 5-(4-chlorophenyl)-N,N-diethyl-4-(4-pyridinyl)-1H-pyrazol-3-amine]	–
189.25 °C	CCc1cccc(-c2[nH]nc(C)c2-c2ccncc2)c1 [Example A-185, 4-[3-(3-ethylphenyl)-5-methyl-1H-pyrazol-4-yl]pyridine]	–
192.66 °C	CCc1cccc(-c2[nH]nc(CC)c2-c2ccncc2)c1 [Example A-187, 4-[3-ethyl-5-(3-ethylphenyl)-1H-pyrazol-4-yl]pyridine]	–
168 to 169 °C	COc1cc(-c2c(-c3ccncc3)c(-c3ccc(F)cc3)nn2CCO)ccn1 [Example A-193, 3-(4-fluorophenyl)-5-(2-methoxy-4-pyridinyl)-4-(4-pyridinyl)-1H-pyrazole-1-ethanol]	–
198.17 °C	Cc1cc(-c2n[nH]cc2-c2ccncc2)ccc1Cl [Example A-199, 4-[3-(4-chloro-3-methylphenyl)-1H-pyrazol-yl]pyridine]	–
82 to 88 °C	Cc1c(-c2ccncc2)c(-c2ccc(Cl)cc2)nn1C [Example A-204, 4-[3-(4-chlorophenyl)-1,5-dimethyl-1H-pyrazol-4-yl]pyridine]	–
164.36 °C	CCn1nc(-c2ccc(Cl)cc2)c(-c2ccncc2)c1C [Example A-206, 4-[3-(4-chlorophenyl)-1-ethyl-5-methyl-1H-pyrazol-4-yl]pyridine]	–
208.46 °C	Clc1ccccc1-c1[nH]ncc1-c1ccncc1 [Example A-209, 4-[3-(2-chlorophenyl)-1H-pyrazol-4-yl]pyridine]	–
163 to 164 °C	NNc1cc(-c2c[nH]nc2-c2cccc(Cl)c2)ccn1 [Example A-219, 4-[3-(3-chlorophenyl)-1H-pyrazol-4-yl]-2(1H)-pyridinone hydrazone]	–
179 to 180 °C	Clc1cccc(-c2n[nH]cc2-c2ccnc(NCc3ccccc3)c2)c1 [Example A-220, 4-[3-(3-chlorophenyl)-1H-pyrazol-4-yl]-N-(phenylmethyl)-2-pyridinamine]	–
185 to 186 °C	Clc1cccc(-c2n[nH]cc2-c2ccnc(NCCc3ccccc3)c2)c1 [Example A-221, 4-[3-(3-chlorophenyl)-1H-pyrazol-4-yl]-N-(phenylethyl)-2-pyridinamine]	–
